Laboratory results as given in patent US11214577B2, “Morphinans useful for treating medical disorders” (priority 2019, dated 2022).
Read-outs that look alike come from different tables or passages of the source.

Legend:
[1] = target: T1, recombinant human delta opioid receptor (Homo sapiens, UniProt P41143); experiment: Opioid receptor radioligand binding assay, delta; settings: for IC50: radioligand [3H]DADLE 0.5 nM; for Selectivity δ/k: ratio of Delta IC50 to Kappa IC50
T1 construct: expressed in transfected cells; host or cells: HEK293 (membranes)

[2] = target: T2, recombinant human mu opioid receptor (Homo sapiens, UniProt P35372); experiment: Opioid receptor radioligand binding assay, mu; settings: for IC50: radioligand [3H]DAMGO 0.5 nM; for Selectivity μ/k: ratio of Mu IC50 to Kappa IC50
T2 construct: expressed in transfected cells; host or cells: HEK293 (membranes)

[3] = target: T3, recombinant human kappa opioid receptor (Homo sapiens, UniProt P41145); experiment: biochemical; settings: membranes of HEK293 cells; radioligand [3H]diprenorphine 0.5 nM; read-out: Binding Affinity Kappa IC50
T3 construct: expressed in transfected cells; host or cells: HEK293 (membranes)

[4] = target: T3, recombinant human kappa opioid receptor; experiment: cell-based; format: cell-based; settings: for EC50: read-out: Cell Assay (FLIPR Calcium) Kappa EC50
[5] = membranes of HEK293 cells, read-out: Binding Affinity Delta IC50
[6] = membranes of HEK293 cells, read-out: Binding Affinity Mu IC50
[7] = Binding Affinity Delta IC50, membranes of HEK293 cells
[8] = Binding Affinity Mu IC50, membranes of HEK293 cells

T3 sequence (P41145 whole entry): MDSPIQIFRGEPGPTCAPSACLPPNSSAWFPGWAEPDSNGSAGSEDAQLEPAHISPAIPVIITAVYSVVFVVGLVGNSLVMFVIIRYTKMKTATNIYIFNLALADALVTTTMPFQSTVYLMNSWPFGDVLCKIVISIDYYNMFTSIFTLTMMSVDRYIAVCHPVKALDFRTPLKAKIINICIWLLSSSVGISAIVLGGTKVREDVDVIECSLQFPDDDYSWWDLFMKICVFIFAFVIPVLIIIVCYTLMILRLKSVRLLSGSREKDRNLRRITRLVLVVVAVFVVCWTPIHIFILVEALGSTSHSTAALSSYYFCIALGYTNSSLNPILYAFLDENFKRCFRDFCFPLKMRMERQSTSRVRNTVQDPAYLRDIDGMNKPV
T1 sequence (P41143 whole entry): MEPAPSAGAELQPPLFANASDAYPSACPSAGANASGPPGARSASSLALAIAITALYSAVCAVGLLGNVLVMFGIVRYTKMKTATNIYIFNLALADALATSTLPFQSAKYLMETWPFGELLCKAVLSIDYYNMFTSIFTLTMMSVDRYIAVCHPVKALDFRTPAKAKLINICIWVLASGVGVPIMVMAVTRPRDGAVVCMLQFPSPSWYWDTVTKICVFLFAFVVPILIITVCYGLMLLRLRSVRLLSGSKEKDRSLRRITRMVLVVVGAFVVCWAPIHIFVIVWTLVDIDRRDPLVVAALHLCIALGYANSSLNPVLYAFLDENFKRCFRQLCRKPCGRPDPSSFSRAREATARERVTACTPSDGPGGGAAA
T2 sequence (P35372 whole entry): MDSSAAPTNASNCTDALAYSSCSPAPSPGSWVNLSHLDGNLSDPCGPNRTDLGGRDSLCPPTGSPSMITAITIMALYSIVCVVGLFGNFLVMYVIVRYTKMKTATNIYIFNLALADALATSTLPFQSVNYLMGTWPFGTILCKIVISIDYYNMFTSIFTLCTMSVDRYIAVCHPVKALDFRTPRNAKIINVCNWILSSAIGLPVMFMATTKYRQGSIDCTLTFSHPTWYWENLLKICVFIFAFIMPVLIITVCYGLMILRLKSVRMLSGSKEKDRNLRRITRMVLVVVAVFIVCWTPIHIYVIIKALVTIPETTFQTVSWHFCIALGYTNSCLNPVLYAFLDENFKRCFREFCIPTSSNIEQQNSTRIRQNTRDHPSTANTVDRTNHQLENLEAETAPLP

Molecule | IC50 [1, 5] | Selectivity δ/k [1] | IC50 [2, 6] | Selectivity μ/k [2] | IC50 [3] | IC50 [1, 7] | IC50 [2, 8] | FLIPR calcium cell assay compared with reference ([4]; comparison in words on Table 2) | EC50 [4]
17-cyclopropylmethyl-10-oxo-4,5α-epoxy-3,14β-dihydroxy-6β-((1R,2R)—N-methyl-2-(3-(4-hydroxylphenyl)-cyclopropanecarboxamido)morphinan [Compound 23b] | 528 nM | 1331 | 73.7 nM | 118.9 | 0.62 nM | – | – | – | –
17-cyclopropylmethyl-10-oxo-4,5α-epoxy-3,14β-dihydroxy-6β-((1S,2S)—N-methyl-2-(3-(4-hydroxylphenyl)-cyclopropanecarboxamido)morphinan [Compound 23a] | 261 nM | 3731 | 12.2 nM | 174.3 | 0.07 nM | – | – | – | –
CN(C(=O)C1CC1c1ccoc1)C1CCC2(O)C3Cc4ccc(O)c5c4C2(CCN3CC2(O)CC2)C1O5 (single isomer, unassigned) [Compound 16a] | – | 5.80 | – | 1.65 | 0.94 nM | 5.46 nM | 1.55 nM | – | –
CN(C(=O)C1CC1c1ccoc1)C1CCC2(O)C3Cc4ccc(O)c5c4C2(CCN3CC2(O)CC2)C1O5 (single isomer, unassigned) [Compound 16b] | – | 5.05 | – | 1.07 | 6.74 nM | 34 nM | 7.18 nM | – | –
CN(C(=O)C1CC1c1ccsc1)C1CCC2(O)C3Cc4ccc(O)c5c4C2(CCN3CC2(O)CC2)C1O5 (single isomer, unassigned) [Compound 18a] | – | 11.3 | – | 1.63 | 0.97 nM | 10.9 nM | 1.58 nM | – | –
CN(C(=O)C1CC1c1ccsc1)C1CCC2(O)C3Cc4ccc(O)c5c4C2(CCN3CC2(O)CC2)C1O5 (single isomer, unassigned) [Compound 18b] | – | 19.2 | – | 12.5 | 6.15 nM | 118 nM | 76.8 nM | – | –
CN(C(=O)C1CC1c1ccsc1)C1CCC2(O)C3Cc4ccc(O)c5c4C2(CCN3CC2(O)CC2)C1O5 (single isomer, unassigned) [Compound 19a] | – | 96.1 | – | 8.05 | 0.17 nM | 16.3 nM | 1.37 nM | – | –
CN(C(=O)C1CC1c1ccc(O)cc1)C1CCC2(O)C3Cc4ccc(O)c5c4C2(CCN3CC2(O)CC2)C1O5 (single isomer, unassigned) [Compound 20a] | – | 1.57 | – | 1.12 | 102 nM | 161 nM | 119 nM | – | –
CN(C(=O)C1CC1c1ccc(O)cc1)C1CCC2(O)C3Cc4ccc(O)c5c4C2(CCN3CC2(O)CC2)C1O5 (single isomer, unassigned) [Compound 21a] | – | 35.6 | – | 1.47 | 0.85 nM | 30.2 nM | 1.25 nM | – | –
CN(C(=O)[C@H]1C[C@@H]1c1ccoc1)[C@@H]1CC[C@@]2(O)[C@H]3Cc4ccc(O)c5c4[C@@]2(CCN3CC2CC2)[C@H]1O5 [Compound 5a, 17-Cyclopropylmethyl-4,5α-epoxy-3,14β-dihydroxy-6β-((1S,2S)—N-methyl-2-(3-furyl)-cyclopropanecarboxamido)morphinan] | – | 207.59 | – | – | 0.42 nM | 86.5 nM | 10.7 nM | improved cell assays over U-69596 | 2.64 nM
CN(C(=O)[C@@H]1C[C@H]1c1ccoc1)[C@@H]1CC[C@@]2(O)[C@H]3Cc4ccc(O)c5c4[C@@]2(CCN3CC2CC2)[C@H]1O5 [Compound 5b, 17-Cyclopropylmethyl-4,5α-epoxy-3,14β-dihydroxy-6β-((1R,2R)—N-methyl-2-(3-furyl)-cyclopropanecarboxamido)morphinan] | – | 8.90 | – | 0.45 | 7.76 nM | 69 nM | 3.47 nM | – | 9.7 nM
CN(C(=O)[C@H]1C[C@@H]1c1ccoc1)[C@H]1CC[C@@]2(O)[C@H]3Cc4ccc(O)c5c4[C@@]2(CCN3CC2CC2)[C@H]1O5 [Compound 7a, 17-Cyclopropylmethyl-4,5α-epoxy-3,14β-dihydroxy-6α-((1S,2S)—N-methyl-2-(3-furyl)-cyclopropanecarboxamido)morphinan] | – | 12.6 | – | 5.85 | 0.05 nM | 0.66 nM | 0.3 nM | – | 6.86 nM
CN(C(=O)[C@@H]1C[C@H]1c1ccoc1)[C@H]1CC[C@@]2(O)[C@H]3Cc4ccc(O)c5c4[C@@]2(CCN3CC2CC2)[C@H]1O5 [Compound 7b, 17-Cyclopropylmethyl-4,5α-epoxy-3,14β-dihydroxy-6α-((1R,2R)—N-methyl-2-(3-furyl)-cyclopropanecarboxamido)morphinan] | – | 2.82 | – | 2.16 | 0.24 nM | 0.68 nM | 0.52 nM | – | 3.76 nM
CN(C(=O)[C@H]1C[C@@H]1c1ccoc1)[C@@H]1CC[C@@]2(O)[C@H]3Cc4ccc(O)c5c4[C@@]2(CCN3CC2(O)CC2)[C@H]1O5 [Compound 17a, 17-(1-hydroxylcyclopropylmethyl)-4,5α-epoxy-3,14β-dihydroxy-6β-((1S,2S)—N-methyl-2-(3-furyl)-cyclopropanecarboxamido)morphinan] | – | 35.3 | – | 4.07 | 1.22 nM | 43.1 nM | 4.96 nM | – | –
CN(C(=O)[C@@H]1C[C@H]1c1ccoc1)[C@@H]1CC[C@@]2(O)[C@H]3Cc4ccc(O)c5c4[C@@]2(CCN3CC2(O)CC2)[C@H]1O5 [Compound 17b] | – | 11.0 | – | 6.99 | 6.49 nM | 71.6 nM | 45.4 nM | – | –
CN(C(=O)[C@@H]1C[C@H]1c1ccsc1)[C@@H]1CC[C@@]2(O)[C@H]3Cc4ccc(O)c5c4[C@@]2(CCN3CC2(O)CC2)[C@H]1O5 [Compound 19b] | – | 319 | – | 13.0 | 0.46 nM | 147 nM | 5.98 nM | – | –
CN(C(=O)[C@@H]1C[C@H]1c1ccc(O)cc1)[C@H]1CC[C@@]2(O)[C@H]3Cc4ccc(O)c5c4[C@@]2(CCN3CC2(O)CC2)[C@H]1O5 [Compound 20b] | – | 0.73 | – | 0.50 | 16 nM | 11.8 nM | 8.08 nM | – | –
CN(C(=O)[C@@H]1C[C@H]1c1ccc(O)cc1)[C@@H]1CC[C@@]2(O)[C@H]3Cc4ccc(O)c5c4[C@@]2(CCN3CC2(O)CC2)[C@H]1O5 [Compound 21b] | – | <1.93 | – | <0.57 | > 200 nM | 385 nM | 114 nM | – | –
